Reference: PubChem BioAssay AID2060486 (Molecular Pharmacology Branch, DTP, NCI, 2025)

Test system: IGROV1 complex spheroids (HUVEC, MSC), viability % test/control
Assay: Anticancer human tumor IGROV1 cell line growth inhibition [GQUAD];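 note: spheroids exposed to compounds for 7 days before readout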;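 for viability, T/C: 100% = DMSO vehicle control viability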
Details: for IC50: curve of first compound; for viability, T/C: stronger effect = lower value
Outline: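 Multi-cell-type spheroids of tumor cells with HUVEC and mesenchymal stem cells, treated with drug combinations. Concentrations descend in half-log steps from near clinical Cmax, or from 10 microM where Cmax is unknown; viability read-out.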

[1] = second compound 0.0316 µM, first compound 0.0316 µM
[2] = second compound 0.0316 µM, first compound 0.1 µM
[3] = second compound 0.0316 µM, first compound 0.316 µM
[4] = second compound 0.0316 µM, first compound 1 µM
[5] = second compound 0.0316 µM, first compound 3.16 µM
[6] = second compound 0.0316 µM, first compound 10 µM
[7] = second compound 0.1 µM, first compound 0.0316 µM
[8] = second compound 0.1 µM, first compound 0.1 µM
[9] = second compound 0.1 µM, first compound 0.316 µM
[10] = second compound 0.1 µM, first compound 1 µM
[11] = second compound 0.1 µM, first compound 3.16 µM
[12] = second compound 0.1 µM, first compound 10 µM
[13] = second compound 0.316 µM, first compound 0.0316 µM
[14] = second compound 0.316 µM, first compound 0.1 µM
[15] = second compound 0.316 µM, first compound 0.316 µM
[16] = second compound 0.316 µM, first compound 1 µM
[17] = second compound 0.316 µM, first compound 3.16 µM
[18] = second compound 0.316 µM, first compound 10 µM
[19] = second compound 1 µM, first compound 0.0316 µM
[20] = second compound 1 µM, first compound 0.1 µM
[21] = second compound 1 µM, first compound 0.316 µM
[22] = second compound 1 µM, first compound 1 µM
[23] = second compound 1 µM, first compound 3.16 µM
[24] = second compound 1 µM, first compound 10 µM
[25] = second compound 3.16 µM, first compound 0.0316 µM
[26] = second compound 3.16 µM, first compound 0.1 µM
[27] = second compound 3.16 µM, first compound 0.316 µM
[28] = second compound 3.16 µM, first compound 1 µM
[29] = second compound 3.16 µM, first compound 3.16 µM
[30] = second compound 3.16 µM, first compound 10 µM
[31] = second compound 10 µM, first compound 0.0316 µM
[32] = second compound 10 µM, first compound 0.1 µM
[33] = second compound 10 µM, first compound 0.316 µM
[34] = second compound 10 µM, first compound 1 µM
[35] = second compound 10 µM, first compound 3.16 µM
[36] = second compound 10 µM, first compound 10 µM

For `C=CCn1c(=O)c2cnc(Nc3ccc(N4CCN(C)CC4)cc3)nc2n1-c1cccc(C(C)(C)O)n1` + CN(C)c1ccc(Nc2c3ccc(NC(=O)CCN4CCCC4)cc3nc3cc(NC(=O)CCN4CCCC4)ccc23)cc1, the IC50 (second compound 0.0316 µM) was 153 nM, the IC50 (second compound 0.1 µM) was 145 nM and the IC50 (second compound 0.316 µM) was 138 nM. For the same compound, the IC50 (second compound 1 µM) was 136 nM, the IC50 (second compound 3.16 µM) was 112 nM and the IC50 (second compound 10 µM) was under 31.6 nM. The viability, T/C [1] was 92.4%, the viability, T/C [2] was 72.3% and the viability, T/C [3] was 12.3%. It also gave a viability, T/C [4] of 3.27%, a viability, T/C [5] of 3.29% and a viability, T/C [6] of 2.49%. It also gave a viability, T/C [7] of 90.8%, a viability, T/C [8] of 68.1% and a viability, T/C [9] of 12.1%. It also gave a viability, T/C [10] of 2.73%, a viability, T/C [11] of 2.54% and a viability, T/C [12] of 2.34%. The viability, T/C [13] was 76.4%, the viability, T/C [14] was 65.5% and the viability, T/C [15] was 10.3%. For the same compound, the viability, T/C [16] was 3.01%, the viability, T/C [17] was 2.63% and the viability, T/C [18] was 1.87%. It also gave a viability, T/C [19] of 61.6%, a viability, T/C [20] of 69.2% and a viability, T/C [21] of 8.29%. It also gave a viability, T/C [22] of 2.65%, a viability, T/C [23] of 2.66% and a viability, T/C [24] of 2.32%. For the same compound, the viability, T/C [25] was 67.7%, the viability, T/C [26] was 54.5% and the viability, T/C [27] was 7.41%. The viability, T/C [28] was 3.03%, the viability, T/C [29] was 2.47% and the viability, T/C [30] was 1.97%. It also gave a viability, T/C [31] of 37.6%, a viability, T/C [32] of 27.4% and a viability, T/C [33] of 5.31%. The viability, T/C [34] was 2.61%, the viability, T/C [35] was 1.87% and the viability, T/C [36] was 1.28%.

`COc1ncnc(C2CC2)c1-c1ncc2cnn(Cc3ccc(-c4nc(C(F)(F)F)cn4C(C)C)cc3)c2n1` + CN(C)c1ccc(Nc2c3ccc(NC(=O)CCN4CCCC4)cc3nc3cc(NC(=O)CCN4CCCC4)ccc23)cc1 was tested, and the IC50 (second compound 0.0316 µM) was over 10000 nM, the IC50 (second compound 0.1 µM) was over 10000 nM and the IC50 (second compound 0.316 µM) was over 10000 nM. The IC50 (second compound 1 µM) was over 10000 nM, the IC50 (second compound 3.16 µM) was over 10000 nM and the IC50 (second compound 10 µM) was 237 nM. For the same compound, the viability, T/C [1] was 93.5%, the viability, T/C [2] was 99% and the viability, T/C [3] was 95.3%. The viability, T/C [4] was 89.2%, the viability, T/C [5] was 104% and the viability, T/C [6] was 83.2%. It also gave a viability, T/C [7] of 86.9%, a viability, T/C [8] of 93% and a viability, T/C [9] of 94.1%. For the same compound, the viability, T/C [10] was 78.2%, the viability, T/C [11] was 100% and the viability, T/C [12] was 82.2%. It also gave a viability, T/C [13] of 77.3%, a viability, T/C [14] of 88.4% and a viability, T/C [15] of 103%. For the same compound, the viability, T/C [16] was 79.2%, the viability, T/C [17] was 93.2% and the viability, T/C [18] was 82.2%. It also gave a viability, T/C [19] of 66.5%, a viability, T/C [20] of 89.1% and a viability, T/C [21] of 98.7%. It also gave a viability, T/C [22] of 74%, a viability, T/C [23] of 83.4% and a viability, T/C [24] of 80.9%. For the same compound, the viability, T/C [25] was 52.1%, the viability, T/C [26] was 69.2% and the viability, T/C [27] was 75.3%. The viability, T/C [28] was 88.8%, the viability, T/C [29] was 75% and the viability, T/C [30] was 62.5%. The viability, T/C [31] was 50%, the viability, T/C [32] was 53% and the viability, T/C [33] was 51.5%. The viability, T/C [34] was 41.6%, the viability, T/C [35] was 37.7% and the viability, T/C [36] was 9.91%.

With `CC1COCCN1c1cc(-c2ccnn2C)c2ccnc(-c3ccn[nH]3)c2n1` (stereo not drawn) + Cc1[nH]c2ccc(F)cc2c1-c1nc2c3cccnc3c3ncccc3c2[nH]1 the IC50 (second compound 0.0316 µM) was 63.5 nM, the IC50 (second compound 0.1 µM) was 52.6 nM and the IC50 (second compound 0.316 µM) was under 31.6 nM. For the same compound, the IC50 (second compound 1 µM) was under 31.6 nM, the IC50 (second compound 3.16 µM) was under 31.6 nM and the IC50 (second compound 10 µM) was under 31.6 nM. It also gave a viability, T/C [1] of 81.2%, a viability, T/C [2] of 29.2% and a viability, T/C [3] of 13.1%. The viability, T/C [4] was 5.35%, the viability, T/C [5] was 5.85% and the viability, T/C [6] was 3.72%. For the same compound, the viability, T/C [7] was 66.3%, the viability, T/C [8] was 29.4% and the viability, T/C [9] was 12.7%. For the same compound, the viability, T/C [10] was 6.46%, the viability, T/C [11] was 4.05% and the viability, T/C [12] was 3.93%. The viability, T/C [13] was 48.1%, the viability, T/C [14] was 14.3% and the viability, T/C [15] was 5.71%. The viability, T/C [16] was 5.18%, the viability, T/C [17] was 4.33% and the viability, T/C [18] was 3.75%. It also gave a viability, T/C [19] of 3.38%, a viability, T/C [20] of 3.29% and a viability, T/C [21] of 4.19%. It also gave a viability, T/C [22] of 4.05%, a viability, T/C [23] of 4.41% and a viability, T/C [24] of 2.28%. For the same compound, the viability, T/C [25] was 3.79%, the viability, T/C [26] was 4.74% and the viability, T/C [27] was 3.3%. The viability, T/C [28] was 2.73%, the viability, T/C [29] was 3.37% and the viability, T/C [30] was 1.52%. The viability, T/C [31] was 4.11%, the viability, T/C [32] was 3.77% and the viability, T/C [33] was 3.3%. It also gave a viability, T/C [34] of 3.47%, a viability, T/C [35] of 2.98% and a viability, T/C [36] of 2.3%.

Compound `CC1COCCN1c1cc(C2(S(C)(=N)=O)CC2)nc(-c2ccnc3[nH]ccc23)n1` (stereo not drawn) + Cc1[nH]c2ccc(F)cc2c1-c1nc2c3cccnc3c3ncccc3c2[nH]1 has an IC50 (second compound 0.0316 µM) of 986 nM, an IC50 (second compound 0.1 µM) of 884 nM and an IC50 (second compound 0.316 µM) of 426 nM. The IC50 (second compound 1 µM) was under 31.6 nM, the IC50 (second compound 3.16 µM) was under 31.6 nM and the IC50 (second compound 10 µM) was under 31.6 nM. For the same compound, the viability, T/C [1] was 80%, the viability, T/C [2] was 86.7% and the viability, T/C [3] was 80.4%. For the same compound, the viability, T/C [4] was 49.2%, the viability, T/C [5] was 14.5% and the viability, T/C [6] was 7.71%. It also gave a viability, T/C [7] of 87.4%, a viability, T/C [8] of 98.1% and a viability, T/C [9] of 74.4%. The viability, T/C [10] was 48.9%, the viability, T/C [11] was 13.7% and the viability, T/C [12] was 6.84%. It also gave a viability, T/C [13] of 81.5%, a viability, T/C [14] of 74.3% and a viability, T/C [15] of 60.9%. For the same compound, the viability, T/C [16] was 21.1%, the viability, T/C [17] was 7.66% and the viability, T/C [18] was 3.74%. For the same compound, the viability, T/C [19] was 4.68%, the viability, T/C [20] was 4.27% and the viability, T/C [21] was 4.11%. The viability, T/C [22] was 3.67%, the viability, T/C [23] was 4.03% and the viability, T/C [24] was 2.64%. It also gave a viability, T/C [25] of 4.14%, a viability, T/C [26] of 5.15% and a viability, T/C [27] of 4.92%. For the same compound, the viability, T/C [28] was 4.78%, the viability, T/C [29] was 3.97% and the viability, T/C [30] was 2.94%. The viability, T/C [31] was 3.9%, the viability, T/C [32] was 4.76% and the viability, T/C [33] was 5.04%. It also gave a viability, T/C [34] of 3.7%, a viability, T/C [35] of 3.55% and a viability, T/C [36] of 2.63%.
